From patent US9115151B2, “Substituted 2,10-dihydro-9-oxa-1,2,4A-triazaphenanthren-3-ones and uses thereof” (AbbVie Inc., priority 2012, dated 2015)
Counter-ions that a name gives are not always drawn.

Tests used:
[1] = target: T1, PKCθ (Homo sapiens, UniProt Q04759); experiment: In vitro enzyme assay (time-resolved fluorescence kinase assay), PKCθ, 100 μM ATP; assay type: biochemical
T1 construct: His6; purchased Millipore; host or cells: baculovirus in Sf21 cells
Protocol: (§1) PKC kinase activity was assayed by time-resolved fluorescence in vitro kinase assay. Unless otherwise indicated, all reagents used for enzyme assays were obtained from Sigma. Specifically, 5 μL N- or C-terminal His6-tagged, recombinant, human PKC, expressed by baculovirus in Sf21 cells (Millipore) was mixed with 5 μL inhibitor (various concentrations, 5% final DMSO), 5 μL Bio-cdc peptide (Biotin-Ahx-[…], 2 μM final concentration, New England Peptide) and 5 μL of ATP (100 μM or 1000 μM final concentration) in 1× reaction buffer, 20 μL final volume.
(§2) Following a sixty minute incubation at room temperature, the reaction was quenched with 5 μL of 0.5 M EDTA pH 7.5.
(§3) Background counts from a minus enzyme control is subtracted from all data. Data (after background correction) are converted to percent activity by dividing by the signal obtained from PKC without drug sample.

[2] = target: T2, PKCα (Homo sapiens, UniProt P17252); experiment: In vitro enzyme assay (time-resolved fluorescence kinase assay), PKCα, 100 μM ATP; assay type: biochemical; details: 100 μM ATP; read-out: PKCα enzyme IC50
T2 construct: His6; purchased Millipore; host or cells: baculovirus in Sf21 cells
Protocol: as §1, §2, §3

[3] = system: CD3/CD28 induced IL-2 in human T-Blasts; experiment: T-Blasts CD3/CD28 induced IL-2 assay; assay type: cell-based; details: read-out: CD3/CD28-stimulated IL2 in T-blasts EC50
Protocol: T-Blasts CD3/CD28 Induced IL-2 Assay
Human T-Blasts are generated using PHA following standard protocols. T-Blasts are freeze aliquoted and vials thawed as required. […] Seed 2×10^5/100 μL cell suspension per well in flat bottomed 96 well plate. Compound dilutions are prepared from 100% DMSO stocks. A total of 8 serial dilutions are made (1/3 in 100% DMSO). Compounds are diluted 1/50 in growth medium to prepare 4× stocks of each tested concentration. 50 μL from each 4× stock concentration is added to the 100 μL cell suspension and incubated for 30 minutes prior stimulus addition. A 4× stimulus stock is prepared using anti-CD3+anti-CD28 antibodies. Antibody mix is added to the cell/compounds suspension in 50 μL at 5 μg/mL final concentration. Compounds are tested in duplicates. Plates are transferred to 37° C./CO2 incubator for 24 hours. After incubation 130 μL of supernatant is collected for IL-2 determination while MTT toxicity analysis is performed on remaining cells/medium.

T1 sequence (Q04759 whole entry): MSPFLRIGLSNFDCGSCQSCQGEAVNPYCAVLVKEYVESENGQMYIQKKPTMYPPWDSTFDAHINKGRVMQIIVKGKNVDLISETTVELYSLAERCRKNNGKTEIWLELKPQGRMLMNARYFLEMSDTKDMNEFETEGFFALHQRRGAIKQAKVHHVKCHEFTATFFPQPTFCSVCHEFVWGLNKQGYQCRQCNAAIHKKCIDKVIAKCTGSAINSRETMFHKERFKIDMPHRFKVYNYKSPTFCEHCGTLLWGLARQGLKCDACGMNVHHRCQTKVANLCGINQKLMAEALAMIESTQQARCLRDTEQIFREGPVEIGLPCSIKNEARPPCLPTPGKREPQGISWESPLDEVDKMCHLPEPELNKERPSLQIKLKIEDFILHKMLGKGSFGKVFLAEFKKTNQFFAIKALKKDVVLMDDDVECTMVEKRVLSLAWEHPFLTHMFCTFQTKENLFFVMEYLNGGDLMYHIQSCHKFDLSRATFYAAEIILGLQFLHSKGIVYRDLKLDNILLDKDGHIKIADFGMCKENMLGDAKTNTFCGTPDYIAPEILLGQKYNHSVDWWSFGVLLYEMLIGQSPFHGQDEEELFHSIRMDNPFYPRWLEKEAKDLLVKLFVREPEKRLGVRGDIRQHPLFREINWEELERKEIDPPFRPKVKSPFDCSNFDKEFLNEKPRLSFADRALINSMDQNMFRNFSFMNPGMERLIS

| Structure (SMILES) | IC50 [1] [µM] | IC50 [2] [µM] | EC50 [3] [µM] |
| --- | --- | --- | --- |
| C[C@@H]1C(=O)NN=C2COc3cc(-c4ccccc4F)c(N4CCN(C)C[C@@H]4C)cc3N21 [Example 231] | < 0.25 | 0.25 to 1 | < 0.25 |
| C[C@@H]1C(=O)NN=C2COc3cc(-c4ccccc4F)c([C@H]4CCCNCC4)cc3N21 [Example 217] | < 0.25 | 1 to 10 | 0.25 to 1 |
| CC1C(=O)NN=C2COc3cc(-c4ccccc4)c(N(C)C4(C)CN(CC5CCOCC5)C4)cc3N21 (stereo not drawn) [Example 95] | < 0.25 | 0.25 to 1 | < 0.25 |
| C[C@@H]1C(=O)NN=C2COc3cc(-c4ccccc4F)c([C@H]4CCCNC4)cc3N21 [Example 216] | < 0.25 | 1 to 10 | 0.25 to 1 |
| C[C@@H]1C(=O)NN=C2COc3cc(-c4ccccc4F)c([C@@H](C)C4(C)CN(CC(C)(C)O)C4)cc3N21 [Example 143] | < 0.25 | 0.25 to 1 | < 0.25 |
| C[C@@H]1C(=O)NN=C2COc3cc(-c4ccccc4F)c([C@H]4CCNC4)cc3N21 [Example 214] | < 0.25 | 1 to 10 | < 0.25 |
| CC(C)c1cc2c(cc1[C@@H](C)C1(C)CN(C)C1)N1C(=NNC(=O)[C@H]1C)CO2 [Example 134, (R)-6-[(R)-1-(1,3-Dimethyl-azetidin-3-yl)-ethyl]-7-isopropyl-4-methyl-2,10-dihydro-9-oxa-1,2,4a-triaza-phenanthren-3-one] | < 0.25 | 1 to 10 | 0.25 to 1 |
| CCN(c1cc2c(cc1-c1ccccc1F)OCC1=NNC(=O)C(C)N12)C1(C)CN(C)C1 (stereo not drawn) [Example 166, 6-[(1,3-Dimethyl-azetidin-3-yl)-ethyl-amino]-7-(2-fluoro-phenyl)-4-methyl-2,10-dihydro-9-oxa-1,2,4a-triaza-phenanthren-3-one hydrochloride acid] | < 0.25 | < 0.25 | < 0.25 |
| C[C@@H]1C(=O)NN=C2COc3cc(C4=CCC(F)(F)CC4)c(C4CCNCC4)cc3N21 [Example 211] | < 0.25 | 1 to 10 | 0.25 to 1 |
| C[C@@H]1C(=O)NN=C2COc3ccc([C@H]4CCN[C@H](Cc5ccccc5)C4)cc3N21 (single isomer, unassigned) [Example 109-1, trifluoroacetic acid] | < 0.25 | 1 to 10 | < 0.25 |
| C[C@@H]1C(=O)NN=C2COc3ccc([C@@H]4CCN[C@H](Cc5ccccc5)C4)cc3N21 (single isomer, unassigned) [Example 109-2, trifluoroacetic acid] | < 0.25 | 1 to 10 | < 0.25 |
| C[C@@H]1C(=O)NN=C2COc3cc(-c4ccccc4F)c([C@@H](C)C4(C)CN(CC5COC5)C4)cc3N21 [Example 144] | < 0.25 | 1 to 10 | 0.25 to 1 |
| C[C@@H]1C(=O)NN=C2COc3cc(C(F)(F)F)c([C@@H](C)C4(C)CNC4)cc3N21 (single isomer, unassigned) [Example 147-1, trifluoroacetic acid] | < 0.25 | 0.25 to 1 | < 0.25 |

Other lines, results leading:

| IC50 [1] [µM] | IC50 [2] [µM] | EC50 [3] [µM] | Structure (SMILES) |
| --- | --- | --- | --- |
| < 0.25 | 1 to 10 | < 0.25 | CC1C(=O)NN=C2COc3cc(F)c(NC4(C)CNC4)cc3N21 (stereo not drawn) [Example 84, 8-Fluoro-1-methyl-9-((3-methylazetidin-3-yl)amino)-3,5-dihydrobenzo[5,6][1,4]oxazino[3,4-c][1,2,4]triazin-2(1H)-one trifluoroacetic acid] |
| 0.25 to 1 | 1 to 10 | 1 to 10 | Cc1cc2c(cc1NC1CNC1)N1C(=NNC(=O)[C@@H]1C)CO2 (single isomer, unassigned) [Example 54-2, trifluoroacetic acid] |
| < 0.25 | 1 to 10 | < 0.25 | CC1C(=O)NN=C2COc3cc(-c4cccc(F)c4)c(NC4CNC4)cc3N21 (racemic) [Example 46] |
| 0.25 to 1 | 1 to 10 | 0.25 to 1 | C[C@H](c1ccc2c(c1)N1C(=NNC(=O)[C@H]1C)CO2)C1CNC1 [Example 110] |
| < 0.25 | 1 to 10 | < 0.25 | Cc1ccccc1-c1cc2c(cc1NC1CNC1)N1C(=NNC(=O)C1C)CO2 (racemic) [Example 48] |
| < 0.25 | 1 to 10 | 0.25 to 1 | CC1C(=O)NN=C2COc3cc(C4CCCC4)c(NC4CNC4)cc3N21 (stereo not drawn) [Example 60] |
| < 0.25 | 1 to 10 | < 0.25 | C[C@@H]1C(=O)NN=C2COc3cc(-c4cccc(F)c4)c(NC4CNC4)cc3N21 [Example 6] |
| < 0.25 | 0.25 to 1 | < 0.25 | C[C@@H]1C(=O)NN=C2COc3cc(-c4ccccc4Cl)c(NC4CNC4)cc3N21 [Example 2] |
| < 0.25 | 1 to 10 | 0.25 to 1 | CC1C(=O)NN=C2COc3cc(C(F)(F)F)c(CC4CNC4)cc3N21 (stereo not drawn) [Example 99, 6-Azetidin-3-ylmethyl-4-methyl-7-trifluoromethyl-2,10-dihydro-9-oxa-1,2,4a-triaza-phenanthren-3-one trifluoroacetic acid] |
| < 0.25 | 1 to 10 | 0.25 to 1 | CC1C(=O)NN=C2COc3cc4ccn(C5CCCNC5)c4cc3N21 (stereo not drawn) [Example 152] |
| < 0.25 | 1 to 10 | 1 to 10 | Cc1cc2c(cc1NC1CNC1)N1C(=NNC(=O)C1C)CO2 (stereo not drawn) [Example 122, 9-(Azetidin-3-ylamino)-1,8-dimethyl-3,5-dihydrobenzo[5,6][1,4]oxazino[3,4-c][1,2,4]triazin-2(1H)-one ditrifluoroacetic acid] |
| 0.25 to 1 | 1 to 10 | 1 to 10 | C[C@H]1C(=O)NN=C2COc3cc(-c4ccccc4)c(NC4CNC4)cc3N21 (single isomer, unassigned) [Example 1-2, trifluoroacetic acid] |
| < 0.25 | 1 to 10 | < 0.25 | CC1C(=O)NN=C2COc3cc(-c4ccc(F)cc4F)c(NC4CNC4)cc3N21 (racemic) [Example 47] |
| < 0.25 | 1 to 10 | < 0.25 | C[C@@H]1C(=O)NN=C2COc3cc(-c4ccc(Cl)cc4Cl)c(NC4CNC4)cc3N21 [Example 8] |
| < 0.25 | 1 to 10 | 0.25 to 1 | CC1C(=O)NN=C2COc3cc(-c4cccc5ccccc45)c(NC4CNC4)cc3N21 (racemic) [Example 52] |
| < 0.25 | 1 to 10 | < 0.25 | Cc1cc2c(cc1N1CCC13CCNCC3)N1C(=NNC(=O)C1C)CO2 (stereo not drawn) [Example 115, 1,8-Dimethyl-9-(1,7-diazaspiro[3.5]nonan-1-yl)-3,5-dihydrobenzo[5,6][1,4]oxazino[3,4-c][1,2,4]triazin-2(1H)-one trifluoroacetic acid] |
| 0.25 to 1 | 1 to 10 | < 0.25 | CC1C(=O)NN=C2COc3cc(-c4cccc(OC(F)(F)F)c4)c(NC4CNC4)cc3N21 (racemic) [Example 16] |
| 0.25 to 1 | 1 to 10 | < 0.25 | CC1C(=O)NN=C2COc3cc(-c4ccc(C(C)(C)C)cc4)c(NC4CNC4)cc3N21 (racemic) [Example 26] |
| < 0.25 | 1 to 10 | < 0.25 | Cc1ccc(-c2cc3c(cc2NC2CNC2)N2C(=NNC(=O)C2C)CO3)cc1 (racemic) [Example 29] |
